The assay has as its system HCV replicon. Kind of assay: HCV replicon luciferase reporter assay. Conditions: Table 5. Details: scale not given here. Type of assay: cell-based. Put shortly: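 Replicon-bearing dividing cells seeded at 5,000–7,500 cells/well, grown 24 h at 37° C/5% CO2, then exposed to test compound at various concentrations for a further 24–48 h. Replication/translation read by luciferase reporter; IC50 taken as compound amount giving 50% reduction in luciferase activity.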
On the technique in general: Replicon systems follow genome replication, usually without infectious particles.

Setting [1] is: Hepatitis C virus, read-out: IC50.

Where two headings read alike, the source gives them in different places.

Turning to `CCCCCOc1ccc(C(=O)NCCNc2nsc3ccc(Cl)cc23)cc1` [Compound 423, N-(2-(5-chlorobenzo[d]isothiazol-3-ylamino)ethyl)-4-(pentyloxy)benzamide], the IC50 under setting [1] was under 5 µM.

Regarding `COc1ccc(-c2cccc(C(=O)NCCCNc3nsc4ccccc34)c2)cc1` [Compound 378, N-(3-(benzo[d]isothiazol-3-ylamino)propyl)-4′-methoxybiphenyl-3-carboxamide], the 50% inhibitory concentration (IC50) under setting [1] is under 5 µM.

`COc1ccc(-c2ccc(C(=O)NCCCNc3nsc4cccc(C(F)(F)F)c34)cc2)cc1` [Compound 500, 4′-methoxy-N-(3-(4-(trifluoromethyl)benzo[d]isothiazol-3-ylamino)propyl)biphenyl-4-carboxamide]: under setting [1], the IC50 was over 5 µM.

Consider `O=C(NCCNc1nsc2ccccc12)c1ccc(C(=O)NC2CC2)cc1` [Compound 427, N^1-(2-(benzo[d]isothiazol-3-ylamino)ethyl)-N^4-cyclopropylterephthalamide], for which, under setting [1], the IC50 is under 5 µM.

For `COc1ccc2[nH]c(C(=O)NCCNc3nsc4ccc(Cl)cc34)cc2c1` [Compound 432, N-(2-(5-chlorobenzo[d]isothiazol-3-ylamino)ethyl)-5-methoxy-1H-indole-2-carboxamide], the IC50 under setting [1] was under 5 µM.

Consider `O=C(NCCCNc1nsc2ccccc12)Nc1ccc(I)cc1` [Compound 387, 1-(3-(benzo[d]isothiazol-3-ylamino)propyl)-3-(4-iodophenyl)urea], for which the IC50 under setting [1] is under 5 µM.

Turning to `CS(=O)(=O)c1ccc(-c2cccc(C(=O)NCCCNc3nsc4ccccc34)n2)cc1` [Compound 440, N-(3-(benzo[d]isothiazol-3-ylamino)propyl)-6-(4-(methylsulfonyl)phenyl)picolinamide], the IC50 under setting [1] is under 5 µM.

For the compound `CCCCC(=O)Nc1ccc2sc(C(=O)NCCCNc3nsc4ccccc34)cc2c1` [Compound 456, N-(3-(benzo[d]isothiazol-3-ylamino)propyl)-5-pentanamidobenzo[b]thiophene-2-carboxamide], the IC50 under setting [1] is under 5 µM.

`COc1ccc(-c2ccc(C(=O)NCCCNc3nsc4cc(S(N)(=O)=O)ccc34)cc2)cc1` [Compound 402, 4′-methoxy-N-(3-(6-sulfamoylbenzo[d]isothiazol-3-ylamino)propyl)biphenyl-4-carboxamide]: under setting [1], the IC50 is under 5 µM.

As to `CC(C)(C)OC(=O)N1CCCC(C(=O)NCCNc2nsc3ccc(Cl)cc23)C1` (stereo not drawn) [Compound 424, tert-butyl 3-(2-(5-chlorobenzo[d]isothiazol-3-ylamino)ethylcarbamoyl)piperidine-1-carboxylate], the IC50 under setting [1] was under 5 µM.

Turning to `COc1cccc(S(=O)(=O)N(C)CCCN(C)c2nsc3ccccc23)c1` [Compound 344, N-(3-(benzo[d]isothiazol-3-yl(methyl)amino)propyl)-3-methoxy-N-methylbenzenesulfonamide], the IC50 under setting [1] was over 5 µM.

As for `O=C(NCCNc1nsc2ccccc12)C1CCCNC1` (stereo not drawn) [Entry 73, N-(2-(Benzo[d]isothiazol-3-ylamino)ethyl)piperidine-3-carboxamide], the IC50 under setting [1] was over 5 µM.

For the compound `O=C(NCCNc1nsc2ccccc12)c1ccccc1C(F)(F)F` [Compound 351, N-(2-(benzo[d]isothiazol-3-ylamino)ethyl)-2-(trifluoromethyl)benzamide], the IC50 under setting [1] was under 5 µM.

With `CC(C)(C)NS(=O)(=O)c1cccc2c(NCCCN)nsc12` [Compound 507, 3-(3-aminopropylamino)-N-tert-butylbenzo[d]isothiazole-7-sulfonamide], under “read-out: IC50”, the IC50 was over 5 µM.

For `O=C(NCCCNc1nsc2ccccc12)c1cccc(I)c1` [Compound 386, N-(3-(benzo[d]isothiazol-3-ylamino)propyl)-3-iodobenzamide], the IC50 under setting [1] is under 5 µM.

With `O=S(=O)(NCCCNc1nsc2ccccc12)c1ccc(Br)c(C(F)(F)F)c1` [Compound 269, N-(3-(benzo[d]isothiazol-3-ylamino)propyl)-4-bromo-3-(trifluoromethyl)benzenesulfonamide], the concentration for half-maximal inhibition (IC50) under setting [1] was under 5 µM.

Turning to `CCCCc1ccc(C(=O)NCCCNc2n[s+]([O-])c3ccccc23)cc1` (stereo not drawn) [Compound 321, 4-butyl-N-{3-[(1-oxido-1,2-benzisothiazol-3-yl)amino]propyl}benzamide], the concentration for half-maximal inhibition (IC50) under setting [1] was over 5 µM.

`COc1ccc(-c2ccc(C(=O)NCCNc3nsc4ccccc34)cc2)cc1` [Compound 360, N-(2-(benzo[d]isothiazol-3-ylamino)ethyl)-4′-methoxybiphenyl-4-carboxamide]: the IC50 under setting [1] was under 5 µM.

In the case of `CC(C)(C)OC(=O)N[C@H](C(=O)NCCNc1nsc2ccc(Cl)cc12)c1ccccc1` [Compound 425, (S)-tert-butyl 2-(2-(5-chlorobenzo[d]isothiazol-3-ylamino)ethylamino)-2-oxo-1-phenylethylcarbamate], under setting [1], the IC50 is under 5 µM.

Turning to `FC(F)(F)c1ccccc1CNCCCNc1nsc2ccccc12` [Compound 326, N^1-(benzo[d]isothiazol-3-yl)-N^3-(2-(trifluoromethyl)benzyl)propane-1,3-diamine], the 50% inhibitory concentration (IC50) under setting [1] is under 5 µM.

Take `COc1ccc(-c2ccc(S(=O)(=O)NCCCNc3nsc4ccccc34)cc2)cc1` [Compound 331, N-(3-(benzo[d]isothiazol-3-ylamino)propyl)-4′-methoxybiphenyl-4-sulfonamide]: under setting [1], the IC50 is under 5 µM.

Take `COc1ccc(-c2cccc(CNCCCNc3nsc4ccccc34)c2)cc1` [Compound 300, N^1-(benzo[d]isothiazol-3-yl)-N^3-((4′-methoxybiphenyl-3-yl)methyl)propane-1,3-diamine]: the half-inhibitory concentration (IC50) under setting [1] was under 5 µM.

Turning to `O=C(NCCNc1nsc2ccccc12)c1ccc(C(F)(F)F)cc1C(F)(F)F` [Compound 356, N-(2-(benzo[d]isothiazol-3-ylamino)ethyl)-2,4-bis(trifluoromethyl)benzamide], under setting [1], the IC50 is under 5 µM.

As to `O=C(NCCCNc1nsc2ccccc12)c1ccc(NCc2ccccn2)cc1` [Compound 297, N-(3-(benzo[d]isothiazol-3-ylamino)propyl)-4-(pyridin-2-ylmethylamino)benzamide], the IC50 under setting [1] was under 5 µM.

Consider `COc1ccc(-c2ccc(CNCCCNC3=NS(=O)(=O)c4ccccc43)cc2)cc1` [Compound 324, N-(1,1-dioxido-1,2-benzisothiazol-3-yl)-N′-[(4′-methoxybiphenyl-4-yl)methyl]propane-1,3-diamine], for which the concentration for half-maximal inhibition (IC50) under setting [1] is over 5 µM.

Turning to `O=C(NCCNc1nsc2ccccc12)c1ccc(F)c(F)c1` [Compound 359, N-(2-(benzo[d]isothiazol-3-ylamino)ethyl)-3,4-difluorobenzamide], where the note is “the head prints only IC50, b387 says Tables 5 and 6 hold Replicon reporter and Western blot results”, the IC50 result is recorded as “A, B”.

As for `CCCC(=O)Nc1ccc2oc(C(=O)NCCCNc3nsc4ccccc34)cc2c1` [Compound 454, N-(3-(benzo[d]isothiazol-3-ylamino)propyl)-5-butyramidobenzofuran-2-carboxamide], the concentration for half-maximal inhibition (IC50) under setting [1] was under 5 µM.

On to `CC(C)(C)OC(=O)N[C@H](C(=O)NCCNc1nsc2ccccc12)c1ccccc1` [Entry 11, (S)-tert-Butyl 2-(2-(Benzo[d]isothiazol-3-ylamino)ethylamino)-2-oxo-1-phenylethylcarbamate], for which the IC50 under setting [1] is under 5 µM.

In the case of `COc1ccc(C(=O)NCCNc2nsc3ccccc23)cc1` [Entry 14, N-(2-(Benzo[d]isothiazol-3-ylamino)ethyl)-4-methoxybenzamide], under setting [1], the IC50 was under 5 µM.

On to `COc1cccc(CNCCCNc2nsc3ccccc23)c1` [Compound 343, N^1-(benzo[d]isothiazol-3-yl)-N^3-(3-methoxybenzyl)propane-1,3-diamine], for which, under setting [1], the IC50 was under 5 µM.

As for `CC(C)NC(=O)c1ccc(C(=O)NCCNc2nsc3ccccc23)cc1` [Compound 426, N^1-(2-(benzo[d]isothiazol-3-ylamino)ethyl)-N^4-isopropylterephthalamide], the IC50 under setting [1] was under 5 µM.

Consider `COc1ccc(-c2cccc(C(=O)NCCNc3nsc4ccccc34)c2)cc1OC` [Compound 370, N-(2-(benzo[d]isothiazol-3-ylamino)ethyl)-3′,4′-dimethoxybiphenyl-3-carboxamide], for which the IC50 under setting [1] was under 5 µM.

For `CCCNC(=O)Nc1ccc2oc(C(=O)NCCCNc3nsc4ccccc34)cc2c1` [Compound 455, N-(3-(benzo[d]isothiazol-3-ylamino)propyl)-5-(3-propylureido)benzofuran-2-carboxamide], the IC50 under setting [1] is under 5 µM.

As for `CCCCc1ccc(NCCCNc2nsc3ccccc23)cc1` [Compound 295, N^1-(benzo[d]isothiazol-3-yl)-N^3-(4-butylphenyl)propane-1,3-diamine], the IC50 under setting [1] was under 5 µM.

Take `FC(F)(F)Oc1ccc(-c2ccc(CNCCCNc3nsc4ccccc34)cc2)cc1` [Compound 336, N^1-(benzo[d]isothiazol-3-yl)-N^3-((4′-(trifluoromethoxy)biphenyl-4-yl)methyl)propane-1,3-diamine]: the IC50 under setting [1] was under 5 µM.

For `O=S(=O)(NCCCNc1nsc2ccccc12)c1ccc(Oc2ccc(Cl)cc2)cc1` [Entry 223, N-(3-(benzo[d]isothiazol-3-ylamino)propyl)-4-(4-chlorophenoxy)benzenesulfonamide], the IC50 under setting [1] is under 5 µM.

Consider `COc1ccc(-c2ccc(C(=O)NCCNc3nsc4ccccc34)cc2)cc1OC` [Compound 361, N-(2-(benzo[d]isothiazol-3-ylamino)ethyl)-3′,4′-dimethoxybiphenyl-4-carboxamide], for which the IC50 under setting [1] is under 5 µM.

Consider `COc1ccc(-c2ccc(CN(CCCNC3=NS(=O)(=O)c4ccccc43)S(=O)(=O)c3cn(C)c(C)n3)cc2)cc1` [Compound 340, N-{3-[(1,1-dioxido-1,2-benzisothiazol-3-yl)amino]propyl}-N-[(4′-methoxybiphenyl-4-yl)methyl]-1,2-dimethyl-1H-imidazole-4-sulfonamide], for which the IC50 under setting [1] is over 5 µM.

`COc1ccc(-c2cccc(C(=O)NCCCNc3nsc4ccccc34)c2)cn1` [Compound 388, N-(3-(benzo[d]isothiazol-3-ylamino)propyl)-3-(6-methoxypyridin-3-yl)benzamide]: the half-maximal inhibitory concentration (IC50) under setting [1] was under 5 µM.

The term IC50 denotes the point on the concentration scale where inhibition reaches its midpoint.
